Experimental data reported in patent publication US20250296942A1, “Phosphonate-Based Coordination Complexes and Methods of Preparation and Use Thereof” (University of Puerto Rico, priority 2021, published 2025).

System: human breast cancer MDA-MB-231 cell line
Experiment: AlamarBlue cytotoxicity, 2,2′-BPBPA series, MDA-MB-231
Type: cell-based
Settings: 24, 48, 72 h
Method: Cell culture methods. MCF-7 and MDA-MB-231 were incubated using DMEM at 37° C. in 5% CO2. The hFOB 1.19 cell lines were incubated with DMEM: F12 at 34° C. in 5% CO2.
Cell lines were supplemented using 10% FBS and 1% Pen-Strep. The media was replaced twice per week. Cell passages were carried out at 80% confluency.
Cell-based assays. Cell lines were seeded in 96 well plates at a density of 5x 10^3 cells/mL and incubated for 24 h before treatment. Cells were treated with 100 μL of 2,2′-BPBPA (0-400 μM), unloaded and loaded nano-Ca@2,2′-BPBPA (6.3-50 μM) for 24, 48, and 72 h.
Control groups were treated with media (DMEM or DMEM: F12) supplemented with 1% Pen-Strep. Cell viability was determined by employing AlamarBLue@. The media was replaced with 100 μL of 10% AlamarBlue® solution. After 24 h of incubation, the fluorescence was assessed at )max of 560 nm for excitation and 590 nm for emission.
Cell culture methods. MCF-7 and MDA-MB-231 were incubated using DMEM at 37° C. in 5% CO2. The hFOB 1.19 cell lines were incubated with DMEM: F12 at 34° C. in 5% CO2. Cell lines were supplemented using 10% FBS and 1% Pen-Strep. The media was replaced twice times per week. Cell passages were carried out at 80% confluency.
Seeding. […]
AlamarBlue@assay. […] Then, the fluorescence was assessed at 560 nm of excitation and λmax 590 nm of emission. […]

In the case of `O=P(O)(O)c1ccc(-c2ccc(P(=O)(O)O)cn2)nc1` [2,2′-BPBPA, 2,2′-bipyridine-5,5′-bisphosphonic acid], the IC50 is reported as greater than 200 µM.
